Assay results: patent US10450356B2, “PRAME derived peptides and immunogenic compositions comprising these” (Academisch Ziekenhuis Leiden H.O.D.N. LUMC, priority 2007, dated 2019)

Target: T1, 20S proteasomes purified from a B-LCL cell line (immunoproteasomes) (Homo sapiens, UniProt P28062+P28065+P40306)
T1 construct: 20S proteasomes were purified from a B-LCL cell line; endogenous in cells; purified after Groettrup et al. 1995
Assay: In vitro proteasome mediated cleavage analysis
Type: biochemical
Parameters: key to Intact in fragment / Intact Fragment: intact epitope found in digestion fragments: (+), present; (-), not present; key to Processing C-term: generation by proteasome-mediated digestion of fragments containing the correct C-terminus: (++) fragments present for >5%; (+) present for <5%; (-) no fragments containing the C-term. were found
Conditions: for Processing C-term: generation by proteasome-mediated digestion of fragments containing the correct C-terminus: 1 h digestion; for Intact Fragment: intact epitope found in digestion fragments: after 1 h digestion; for C-term. generation: generation of C-terminus of the epitope after 1 h digestion; for Intact in fragment: intact epitope found in digestion fragments after 1 h digestion
Outline: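 Cleavage products were analysed by on-line nanoESI Q-TOF mass spectrometry, and relative fragment amounts came from peak intensities. Digests contained 20 μg of 27-mer peptide and 1 μg of 20S immunoproteasome purified from B-LCL cells. They ran at 37° C for 1, 4 or 24 h and were stopped with trifluoroacetic acid.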

Structure (SMILES) | Processing C-term: generation by proteasome-mediated digestion of fragments containing the correct C-terminus | Intact Fragment: intact epitope found in digestion fragments | C-term. generation | Intact in fragment
CSCC[C@H](NC(=O)[C@H](C)N)C(=O)N[C@H](C(=O)N[C@@H](CCC(N)=O)C(=O)N[C@@H](C)C(=O)N[C@@H](Cc1c[nH]c2ccccc12)C(=O)N1CCC[C@H]1C(=O)N[C@@H](Cc1ccccc1)C(=O)N[C@H](C(=O)N[C@@H](CS)C(=O)O)[C@@H](C)O)C(C)C | - | - |  | 
CC(C)C[C@H](NC(=O)[C@@H](NC(=O)[C@H](CC(=O)O)NC(=O)[C@H](CC(C)C)NC(=O)CNC(=O)[C@H](CC(=O)O)NC(=O)[C@H](CC(C)C)NC(=O)[C@@H](NC(=O)[C@H](C)N)C(C)C)C(C)C)C(=O)O | - | - |  | 
CC(C)C[C@H](NC(=O)[C@H](CC(C)C)NC(=O)[C@@H](NC(=O)[C@H](CC(=O)O)NC(=O)[C@H](CC(C)C)NC(=O)CNC(=O)[C@H](CC(=O)O)NC(=O)[C@H](CC(C)C)NC(=O)[C@@H](NC(=O)[C@H](C)N)C(C)C)C(C)C)C(=O)O | ++ ((++) fragments present for >5%) | + | ++ (abundant (++) present for >5%) | +
CC(C)C[C@H](NC(=O)CN)C(=O)N[C@@H](CC(=O)O)C(=O)N[C@H](C(=O)N[C@@H](CC(C)C)C(=O)N[C@@H](CC(C)C)C(=O)N[C@@H](C)C(=O)N[C@@H](CCC(N)=O)C(=O)N[C@@H](CCC(=O)O)C(=O)N[C@H](C(=O)O)C(C)C)C(C)C | - | - |  | 
CC(C)C[C@H](NC(=O)[C@H](Cc1c[nH]cn1)NC(=O)[C@H](CC(C)C)NC(=O)[C@@H](N)Cc1c[nH]cn1)C(=O)N[C@@H](CCC(=O)O)C(=O)N[C@H](C(=O)N[C@@H](Cc1ccccc1)C(=O)N[C@@H](CCCCN)C(=O)N[C@@H](C)C(=O)O)[C@@H](C)O | - | - |  | 
CC(C)C[C@H](NC(=O)[C@@H](NC(=O)CNC(=O)[C@H](CC(C)C)NC(=O)[C@@H]1CCCN1C(=O)[C@H](CC(C)C)NC(=O)[C@H](CS)NC(=O)[C@@H](NC(=O)[C@H](Cc1ccccc1)NC(=O)[C@@H]1CCCN1)[C@@H](C)O)C(C)C)C(=O)O | ++ ((++) fragments present for >5%) | + | ++ (abundant (++) present for >5%) | +
CC(C)C[C@H](NC(=O)CNC(=O)[C@H](CC(=O)O)NC(=O)[C@H](CC(C)C)NC(=O)[C@@H](NC(=O)[C@H](C)NC(=O)[C@H](CCCCN)NC(=O)[C@H](Cc1ccccc1)NC(=O)[C@@H](N)[C@@H](C)O)C(C)C)C(=O)O | - | - |  | 
CC(C)C[C@H](NC(=O)CNC(=O)[C@H](CC(=O)O)NC(=O)[C@H](CC(C)C)NC(=O)[C@@H](N)C(C)C)C(=O)N[C@@H](CC(=O)O)C(=O)N[C@H](C(=O)N[C@@H](CC(C)C)C(=O)N[C@@H](CC(C)C)C(=O)N[C@@H](C)C(=O)O)C(C)C | - | - |  | 
CSCC[C@H](NC(=O)[C@H](CC(C)C)NC(=O)[C@@H](N)C(C)C)C(=O)N[C@@H](CCCCN)C(=O)NCC(=O)N[C@@H](CCC(N)=O)C(=O)N[C@@H](Cc1c[nH]cn1)C(=O)N[C@@H](CC(C)C)C(=O)N[C@@H](Cc1c[nH]cn1)C(=O)N[C@@H](CC(C)C)C(=O)O | - | - |  | 
